In ChEMBL document CHEMBL4823305, “Design, synthesis and antibacterial evaluation of novel 3-O-substituted 15-membered azalides possessing 1,2,3-triazole side chains” (2021):
Converted amounts (≈) assume the structure as drawn.

What was measured:
Format in all cases: functional
Staphylococcus aureus [1] = experiment: Antibacterial activity against erythromycin-susceptible Staphylococcus aureus ATCC25923 by broth microdilution method
Enterococcus faecalis = experiment: Antibacterial activity against vancomycin-susceptible Enterococcus faecalis ATCC29212 by broth microdilution method
Bacillus subtilis = experiment: Antibacterial activity against penicillin-susceptible Bacillus subtilis ATCC9372 by broth microdilution method
Enterococcus faecium = experiment: Antibacterial activity against clinical isolate erythromycin-resistant Enterococcus faecium by broth microdilution method
Staphylococcus aureus [2] = experiment: Antibacterial activity against methicillin-resistant Staphylococcus aureus ATCC43300 by broth microdilution method
Staphylococcus aureus [3] = experiment: Antibacterial activity against penicillin-resistant Staphylococcus aureus by broth microdilution method
Klebsiella pneumoniae = experiment: Antibacterial activity against Klebsiella pneumoniae ATCC10031 by broth microdilution method

SMILES | MIC (Staphylococcus aureus [1]) | MIC (Enterococcus faecalis) | MIC (Bacillus subtilis) | MIC (Enterococcus faecium) | MIC (Staphylococcus aureus [2]) | MIC (Staphylococcus aureus [3]) | MIC (Klebsiella pneumoniae)
CCOc1ccc(-c2cn(CC(=O)NNC(=O)O[C@H]3[C@H](C)[C@@H](O[C@@H]4O[C@H](C)C[C@H](N(C)C)[C@H]4O)[C@](C)(O)C[C@@H](C)CN(C)[C@H](C)[C@H]4OC(=O)O[C@]4(C)[C@@H](CC)OC(=O)[C@@H]3C)nn2)cc1 | 32 µg/mL (≈ 35.4 µM) | 16 µg/mL (≈ 17.7 µM) | 64 µg/mL (≈ 70.8 µM) | 128 µg/mL (≈ 142 µM) | 128 µg/mL (≈ 142 µM) | 128 µg/mL (≈ 142 µM) | 32 µg/mL (≈ 35.4 µM)
CCCOc1ccc(-c2cn(CC(=O)NNC(=O)O[C@H]3[C@H](C)[C@@H](O[C@@H]4O[C@H](C)C[C@H](N(C)C)[C@H]4O)[C@](C)(O)C[C@@H](C)CN(C)[C@H](C)[C@H]4OC(=O)O[C@]4(C)[C@@H](CC)OC(=O)[C@@H]3C)nn2)cc1 | 16 µg/mL (≈ 17.4 µM) | 16 µg/mL (≈ 17.4 µM) | 32 µg/mL (≈ 34.9 µM) | 64 µg/mL (≈ 69.7 µM) | 64 µg/mL (≈ 69.7 µM) | 64 µg/mL (≈ 69.7 µM) | 32 µg/mL (≈ 34.9 µM)
CC[C@H]1OC(=O)[C@H](C)[C@@H](OC(=O)NNC(=O)Cn2cc(-c3ccccc3Cl)nn2)[C@H](C)[C@@H](O[C@@H]2O[C@H](C)C[C@H](N(C)C)[C@H]2O)[C@](C)(O)C[C@@H](C)CN(C)[C@H](C)[C@H]2OC(=O)O[C@@]21C | 32 µg/mL (≈ 35.8 µM) | 64 µg/mL (≈ 71.6 µM) | 64 µg/mL (≈ 71.6 µM) | 64 µg/mL (≈ 71.6 µM) | 128 µg/mL (≈ 143 µM) | 256 µg/mL (≈ 286 µM) | 32 µg/mL (≈ 35.8 µM)
CC[C@H]1OC(=O)[C@H](C)[C@@H](OC(=O)NNC(=O)Cn2cc(-c3ccc(C)cc3)nn2)[C@H](C)[C@@H](O[C@@H]2O[C@H](C)C[C@H](N(C)C)[C@H]2O)[C@](C)(O)C[C@@H](C)CN(C)[C@H](C)[C@H]2OC(=O)O[C@@]21C | 32 µg/mL (≈ 36.6 µM) | 32 µg/mL (≈ 36.6 µM) | 64 µg/mL (≈ 73.2 µM) | 64 µg/mL (≈ 73.2 µM) | 256 µg/mL (≈ 293 µM) | 256 µg/mL (≈ 293 µM) | 16 µg/mL (≈ 18.3 µM)
CC[C@H]1OC(=O)[C@H](C)[C@@H](OC(=O)NNC(=O)Cn2cc(-c3ccc(Br)cc3)nn2)[C@H](C)[C@@H](O[C@@H]2O[C@H](C)C[C@H](N(C)C)[C@H]2O)[C@](C)(O)C[C@@H](C)CN(C)[C@H](C)[C@H]2OC(=O)O[C@@]21C | 32 µg/mL (≈ 34.1 µM) | 32 µg/mL (≈ 34.1 µM) | 32 µg/mL (≈ 34.1 µM) | 64 µg/mL (≈ 68.2 µM) | 64 µg/mL (≈ 68.2 µM) | 128 µg/mL (≈ 136 µM) | 64 µg/mL (≈ 68.2 µM)
CC[C@H]1OC(=O)[C@H](C)[C@@H](OC(=O)NNC(=O)Cn2cc(-c3cccc(Cl)c3)nn2)[C@H](C)[C@@H](O[C@@H]2O[C@H](C)C[C@H](N(C)C)[C@H]2O)[C@](C)(O)C[C@@H](C)CN(C)[C@H](C)[C@H]2OC(=O)O[C@@]21C | 64 µg/mL (≈ 71.6 µM) | 16 µg/mL (≈ 17.9 µM) | 64 µg/mL (≈ 71.6 µM) | 64 µg/mL (≈ 71.6 µM) | 128 µg/mL (≈ 143 µM) | 256 µg/mL (≈ 286 µM) | 16 µg/mL (≈ 17.9 µM)
CCCc1ccc(-c2cn(CC(=O)NNC(=O)O[C@H]3[C@H](C)[C@@H](O[C@@H]4O[C@H](C)C[C@H](N(C)C)[C@H]4O)[C@](C)(O)C[C@@H](C)CN(C)[C@H](C)[C@H]4OC(=O)O[C@]4(C)[C@@H](CC)OC(=O)[C@@H]3C)nn2)cc1 | 16 µg/mL (≈ 17.7 µM) | 8 µg/mL (≈ 8.87 µM) | 16 µg/mL (≈ 17.7 µM) | 32 µg/mL (≈ 35.5 µM) | 64 µg/mL (≈ 70.9 µM) | 64 µg/mL (≈ 70.9 µM) | 16 µg/mL (≈ 17.7 µM)
CC[C@H]1OC(=O)[C@H](C)[C@@H](OC(=O)NNC(=O)Cn2cc(-c3ccc(F)cc3)nn2)[C@H](C)[C@@H](O[C@@H]2O[C@H](C)C[C@H](N(C)C)[C@H]2O)[C@](C)(O)C[C@@H](C)CN(C)[C@H](C)[C@H]2OC(=O)O[C@@]21C | 64 µg/mL (≈ 72.9 µM) | 32 µg/mL (≈ 36.4 µM) | 64 µg/mL (≈ 72.9 µM) | 128 µg/mL (≈ 146 µM) | 256 µg/mL (≈ 292 µM) | 128 µg/mL (≈ 146 µM) | 64 µg/mL (≈ 72.9 µM)
CC[C@H]1OC(=O)[C@H](C)[C@@H](OC(=O)NNC(=O)Cn2cc(-c3cccc(F)c3)nn2)[C@H](C)[C@@H](O[C@@H]2O[C@H](C)C[C@H](N(C)C)[C@H]2O)[C@](C)(O)C[C@@H](C)CN(C)[C@H](C)[C@H]2OC(=O)O[C@@]21C | 32 µg/mL (≈ 36.4 µM) | 32 µg/mL (≈ 36.4 µM) | 64 µg/mL (≈ 72.9 µM) | 128 µg/mL (≈ 146 µM) | 256 µg/mL (≈ 292 µM) | 256 µg/mL (≈ 292 µM) | 64 µg/mL (≈ 72.9 µM)
CC[C@H]1OC(=O)[C@H](C)[C@@H](O[C@H]2C[C@@](C)(OC)[C@@H](O)[C@H](C)O2)[C@H](C)[C@@H](O[C@@H]2O[C@H](C)C[C@H](N(C)C)[C@H]2O)[C@](C)(OC)C[C@@H](C)C(=O)[C@H](C)[C@@H](O)[C@]1(C)O [CLARITHROMYCIN] | < 0.25 µg/mL | 1 µg/mL (≈ 1.34 µM) | < 0.25 µg/mL | 256 µg/mL (≈ 342 µM) | > 256 µg/mL | > 256 µg/mL | 4 µg/mL (≈ 5.35 µM)
CC[C@H]1OC(=O)[C@H](C)[C@@H](OC(=O)NNC(=O)Cn2cc(-c3cccc(N)c3)nn2)[C@H](C)[C@@H](O[C@@H]2O[C@H](C)C[C@H](N(C)C)[C@H]2O)[C@](C)(O)C[C@@H](C)CN(C)[C@H](C)[C@H]2OC(=O)O[C@@]21C | 128 µg/mL (≈ 146 µM) | > 128 µg/mL | > 128 µg/mL | 128 µg/mL (≈ 146 µM) | > 256 µg/mL | > 256 µg/mL | 128 µg/mL (≈ 146 µM)
